{"source": "ChEMBL document CHEMBL3132857", "about": "“Design, synthesis and biological evaluation of novel indano- and thiaindano-pyrazoles with potential interest for Alzheimer's disease” (Medchemcomm, 2013)", "key": {"[1]": {"biological_target": "Butyrylcholinesterase (Equus caballus) (UniProt Q9N1N9)", "experiment": "Inhibition of horse serum BuChE at 10 uM using butyrylthiocholine chloride by spectrophotometry"}, "Acetylcholinesterase [2]": {"biological_target": "T1, Acetylcholinesterase (Electrophorus electricus, UniProt O42275)", "experiment": "Inhibition of electric eel AChE using acetylthiocholine chloride by spectrophotometry"}, "Acetylcholinesterase [3]": {"biological_target": "T1, Acetylcholinesterase", "experiment": "Non-competitive inhibition of electric eel AChE using acetylthiocholine chloride by Lineweaver-Burk plot method and Ellman's method based spectrophotometry"}, "Acetylcholinesterase [4]": {"biological_target": "T2, Acetylcholinesterase (Homo sapiens, UniProt P22303)", "experiment": "Inhibition of human erythrocyte AChE using acetylthiocholine chloride by spectrophotometry"}, "[5]": {"biological_target": "Acetylcholinesterase (Electrophorus electricus) (UniProt O42275)", "experiment": "Inhibition of electric eel AChE at 10 uM using acetylthiocholine chloride by spectrophotometry"}, "Acetylcholinesterase [6]": {"biological_target": "T2, Acetylcholinesterase", "experiment": "Inhibition of human erythrocyte AChE at 10 uM using acetylthiocholine chloride by spectrophotometry"}, "Acetylcholinesterase [7]": {"biological_target": "T1, Acetylcholinesterase", "experiment": "Reversible mixed type inhibition of electric eel AChE using acetylthiocholine chloride by Lineweaver-Burk plot method and Ellman's method based spectrophotometry"}, "Butyrylcholinesterase": {"biological_target": "Butyrylcholinesterase (Equus caballus, UniProt Q9N1N9)", "experiment": "Inhibition of horse serum BuChE using butyrylthiocholine chloride by spectrophotometry"}}, "data": [{"smiles": "Cn1ncc2c1-c1c(Br)sc(Br)c1C2NC(=O)CN1CCN(Cc2ccccc2F)CC1", "note": "(stereo not drawn)", "values": [{"measurement": "inhibition", "setting": "[1]", "value": 30, "unit": "%"}, {"measurement": "IC50", "setting": "Acetylcholinesterase [2]", "value": 0.24, "unit": "µM"}, {"measurement": "Ki", "setting": "Acetylcholinesterase [3]", "value": 0.429, "unit": "µM"}, {"measurement": "IC50", "setting": "Acetylcholinesterase [4]", "value": 0.88, "unit": "µM"}]}, {"smiles": "O=C(CN1CCN(Cc2ccccc2)CC1)NC1c2ccsc2-c2c1cnn2-c1ccccc1", "note": "(stereo not drawn)", "values": [{"measurement": "inhibition", "setting": "[5]", "value": 31, "unit": "%"}, {"measurement": "inhibition", "setting": "Acetylcholinesterase [6]", "value": 36, "unit": "%"}]}, {"smiles": "O=C(CN1CCN(Cc2ccccc2)CC1)NC1c2cn[nH]c2-c2c(Br)sc(Br)c21", "note": "(stereo not drawn)", "values": [{"measurement": "IC50", "setting": "Acetylcholinesterase [2]", "value": 8.82, "unit": "µM"}, {"measurement": "IC50", "setting": "Acetylcholinesterase [4]", "value": 1.13, "unit": "µM"}]}, {"smiles": "COc1cc2c(cc1OC)C(NC(=O)CN1CCN(Cc3ccccc3F)CC1)c1cnn(C)c1-2", "note": "(stereo not drawn)", "values": [{"measurement": "inhibition", "setting": "[1]", "value": 1, "unit": "%"}, {"measurement": "IC50", "setting": "Acetylcholinesterase [2]", "value": 0.72, "unit": "µM"}, {"measurement": "IC50", "setting": "Acetylcholinesterase [4]", "value": 2.44, "unit": "µM"}]}, {"smiles": "O=C(CN1CCN(Cc2ccccc2F)CC1)NC1c2cnn(-c3ccccc3)c2-c2c(Br)sc(Br)c21", "note": "(stereo not drawn)", "values": [{"measurement": "inhibition", "setting": "[5]", "value": 27, "unit": "%"}, {"measurement": "inhibition", "setting": "Acetylcholinesterase [6]", "value": 15, "unit": "%"}]}, {"smiles": "COc1cc2c(cc1OC)C(NC(=O)CN1CCN(Cc3ccccc3F)CC1)c1cn[nH]c1-2", "note": "(stereo not drawn)", "values": [{"measurement": "inhibition", "setting": "Acetylcholinesterase [6]", "value": 50, "unit": "%"}, {"measurement": "IC50", "setting": "Acetylcholinesterase [2]", "value": 3.98, "unit": "µM"}]}, {"smiles": "O=C(CN1CCN(Cc2ccccc2)CC1)NC1c2cnn(-c3ccccc3)c2-c2c(Br)sc(Br)c21", "note": "(stereo not drawn)", "values": [{"measurement": "inhibition", "setting": "[1]", "value": 37, "unit": "%"}, {"measurement": "IC50", "setting": "Acetylcholinesterase [2]", "value": 0.29, "unit": "µM"}, {"measurement": "IC50", "setting": "Acetylcholinesterase [4]", "value": 0.87, "unit": "µM"}]}, {"smiles": "Cn1ncc2c1-c1sccc1C2NC(=O)CN1CCN(Cc2ccccc2)CC1", "note": "(stereo not drawn)", "values": [{"measurement": "IC50", "setting": "Acetylcholinesterase [2]", "value": 1.91, "unit": "µM"}, {"measurement": "IC50", "setting": "Acetylcholinesterase [4]", "value": 0.93, "unit": "µM"}]}, {"smiles": "Cn1ncc2c1-c1c(Br)sc(Br)c1C2NC(=O)CN1CCN(Cc2ccccc2)CC1", "note": "(stereo not drawn)", "values": [{"measurement": "Ki", "setting": "Acetylcholinesterase [7]", "value": 0.235, "unit": "µM"}, {"measurement": "IC50", "setting": "Butyrylcholinesterase", "value": 7.76, "unit": "µM"}, {"measurement": "IC50", "setting": "Acetylcholinesterase [2]", "value": 0.1, "unit": "µM"}, {"measurement": "IC50", "setting": "Acetylcholinesterase [4]", "value": 0.33, "unit": "µM"}]}, {"smiles": "COc1cc2c(cc1OC)C(NC(=O)CN1CCN(Cc3ccccc3)CC1)c1cnn(C)c1-2", "note": "(stereo not drawn)", "values": [{"measurement": "IC50", "setting": "Acetylcholinesterase [2]", "value": 1.28, "unit": "µM"}, {"measurement": "IC50", "setting": "Acetylcholinesterase [4]", "value": 1.84, "unit": "µM"}]}, {"smiles": "Cn1ncc2c1-c1sccc1C2NC(=O)CN1CCN(Cc2ccccc2F)CC1", "note": "(stereo not drawn)", "values": [{"measurement": "IC50", "setting": "Acetylcholinesterase [2]", "value": 1.31, "unit": "µM"}, {"measurement": "IC50", "setting": "Acetylcholinesterase [4]", "value": 1.32, "unit": "µM"}]}, {"smiles": "O=C(CN1CCN(Cc2ccccc2F)CC1)NC1c2ccsc2-c2c1cnn2-c1ccccc1", "note": "(stereo not drawn)", "values": [{"measurement": "inhibition", "setting": "Acetylcholinesterase [6]", "value": 42, "unit": "%"}, {"measurement": "IC50", "setting": "Acetylcholinesterase [2]", "value": 4.06, "unit": "µM"}]}, {"smiles": "COc1cc2c(cc1OC)C(NC(=O)CN1CCN(Cc3ccccc3F)CC1)c1cnn(-c3ccccc3)c1-2", "note": "(stereo not drawn)", "values": [{"measurement": "inhibition", "setting": "[1]", "value": 8, "unit": "%"}, {"measurement": "IC50", "setting": "Acetylcholinesterase [2]", "value": 0.21, "unit": "µM"}, {"measurement": "IC50", "setting": "Acetylcholinesterase [4]", "value": 2.43, "unit": "µM"}]}, {"smiles": "COc1cc2c(cc1OC)C(NC(=O)CN1CCN(Cc3ccccc3)CC1)c1cnn(-c3ccccc3)c1-2", "note": "(stereo not drawn)", "values": [{"measurement": "IC50", "setting": "Acetylcholinesterase [2]", "value": 1.36, "unit": "µM"}, {"measurement": "IC50", "setting": "Acetylcholinesterase [4]", "value": 2.99, "unit": "µM"}]}, {"smiles": "O=C(CN1CCN(Cc2ccccc2F)CC1)NC1c2cn[nH]c2-c2c(Br)sc(Br)c21", "note": "(stereo not drawn)", "values": [{"measurement": "inhibition", "setting": "Acetylcholinesterase [6]", "value": 42, "unit": "%"}, {"measurement": "IC50", "setting": "Acetylcholinesterase [2]", "value": 4.53, "unit": "µM"}]}, {"smiles": "O=C(CN1CCN(Cc2ccccc2F)CC1)NC1c2cn[nH]c2-c2sccc21", "note": "(stereo not drawn)", "values": [{"measurement": "inhibition", "setting": "Acetylcholinesterase [6]", "value": 42, "unit": "%"}, {"measurement": "IC50", "setting": "Acetylcholinesterase [2]", "value": 4.59, "unit": "µM"}]}, {"smiles": "COc1cc2c(cc1OC)C(NC(=O)CN1CCN(Cc3ccccc3)CC1)c1cn[nH]c1-2", "note": "(stereo not drawn)", "values": [{"measurement": "inhibition", "setting": "Acetylcholinesterase [6]", "value": 49, "unit": "%"}, {"measurement": "IC50", "setting": "Acetylcholinesterase [2]", "value": 2.94, "unit": "µM"}]}, {"smiles": "O=C(CN1CCN(Cc2ccccc2)CC1)NC1c2cn[nH]c2-c2sccc21", "note": "(stereo not drawn)", "values": [{"measurement": "inhibition", "setting": "[5]", "value": 49, "unit": "%"}, {"measurement": "IC50", "setting": "Acetylcholinesterase [4]", "value": 9.18, "unit": "µM"}]}]}
